What is called EC50 is the concentration needed to bring the measured effect to its halfway point. Usually IC50 stands for the point on the concentration scale where inhibition reaches its midpoint. A high value points to lower potency.

Where “and” joins values, the source holds several entries; their conditions need not be identical. Equal entries are not always repeated. Calls of active or inactive are those of the source.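 The calls were made as follows: active = compounds giving half or more protection of infected cells from virus-caused growth loss, again on retest; inactive = the rest.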

EC50, IC50 and outcome data for 71 compounds are collected here from PubChem BioAssay AID179 (DTP/NCI, 2004).

The assay has as its system CEM cells HIV-1 protection, formazan growth assay. Put plainly: NCI AIDS Antiviral Assay. The following applies: for IC50: measured here: growth of uninfected CEM cells. In short, it runs like this:
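Protection of CEM cells against HIV-1 was scored from cell growth (soluble formazan) across five concentrations, with parallel uninfected cells. Lack of protection may reflect toxicity.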

For `CCOC(=O)C(CCC(N)=O)(CCC(=O)OC)C(=O)OCC`, the EC50 is above 200 µM and the IC50 was above 200 µM. Take `CC1(C)C2C=CC1(C)C1(CC2)OCCO1` (configuration not stated): the EC50 is above 200 µM and the IC50 is above 200 µM. Take `FC(F)(F)c1ccccc1C=NC12CC3CC(CC(C3)C1)C2`: the EC50 is above 30.9 µM and the 50% inhibitory concentration (IC50) is above 30.9 µM.

For the compound `Cc1ccc2c(c1)C1(C)OC(C=CC1=O)O2` (configuration not stated), the EC50 was above 3.16 µM and the IC50 was determined as 0.525 µM. Regarding `CCOC(=O)C(=O)Nc1cc(Cl)c(Cl)cc1Cl`, the EC50 was above 63.1 µM and the IC50 is above 63.1 µM. On to `ClC(Cl)=C(Cl)C1(Cl)CC1COCc1ccccc1` (configuration not stated), for which the EC50 is above 30.9 µM and the concentration for half-maximal inhibition (IC50) was 24.5 µM. In the case of `C[C@]12CC[C@H]3[C@@H](CCC4=C/C(=N/OCCN5CCCCC5)CC[C@@]43C)[C@@H]1CC[C@@H]2O`, the EC50 was above 200 µM and the IC50 came out at 4.17 µM. Turning to `CCCNC(=O)N(CCC)S(=O)(=O)c1ccc(Cl)cc1`, the result was inactive.

As for `FC(F)(F)c1cccc(N(c2nc(Cl)nc(Cl)n2)c2nc(Cl)nc(Cl)n2)c1`, the EC50 is above 200 µM and the IC50 was above 200 µM. For the compound `COC1OC(CS(=O)(=O)O)C(O)C(O)C1O` (configuration not stated), the result was inactive. As for `COc1cccc(NC(=O)c2c(SC)c(C#N)c(=O)n(N)c2N)c1`, the EC50 was above 200 µM and the IC50 turned out to be 107 µM. Take `C[C@@H](c1ccccc1)N1CN(C(=O)OCc2ccccc2)C(C)(C)CC1=O`: the EC50 is above 200 µM and the IC50 is 191 µM. For the compound `COC1=C(OC)C(=O)C2=C(OCCCO2)C1=O`, the EC50 was above 389 µM and the IC50 is 2 µM. With `Cc1cc2c(c(C(=O)NCCC(=O)N[C@@H](C)C(=O)OCc3ccccc3)c1)Oc1c(cc(C)cc1C(=O)NCCC(=O)N[C@@H](C)C(=O)OCc1ccccc1)S2`, the EC50 is above 200 µM and the IC50 is above 200 µM. As to `O=P(O)(O)OP(=O)(O)O.[NH-]CC[NH-].[NH-]CC[NH-].[Pd+2].[Pd+2]`, the EC50 was above 200 µM and the IC50 worked out at 102 µM. For `CCOC(=O)C1(C#N)C2(C#N)C(N)=NC(ON=C(C)C)(ON=C(C)C)C12C#N` (configuration not stated), in that order: above 200 µM and above 200 µM. Consider `CC(C)C1CNC(=O)C2(CCCO2)CNC(C(C)C)CNC(=O)C2(CCCO2)CN1` (configuration not stated), for which the EC50 is above 295 µM and the IC50 is above 295 µM. With `CCCCOP(=S)(OCCCC)SC1(SC)SSC=C1CC(C)(C)C` (configuration not stated), the result was inactive.

For `CCCC(C(=O)OC)C(=O)C(C)c1nc2n(c1O)C(=N)N=N2` (configuration not stated), the EC50 is above 200 µM and the IC50 is above 200 µM. `COc1ccc(CCNC(=O)Cc2ccccc2CCO)cc1OC`: the EC50 is above 200 µM and the IC50 is above 200 µM. In the case of `C=C(/C=N/N(C)C)CC1c2c(O)ccc3cccc(c23)N1S(=O)(=O)c1ccc(C)cc1` (configuration not stated), the EC50 is above 10.7 µM and the IC50 is above 10.7 µM.

For the compound `NC(N)=NCC[C@H](NC(=O)OCCCCCn1ccc(=O)[nH]c1=O)C(=O)O`, the EC50 was above 200 µM and the IC50 was above 200 µM. With `CCOP(=O)(OCC)/C(C#N)=C/c1ccc(Cl)cc1`, the EC50 was above 316 µM and the IC50 came out at 195 µM. For `c1ccc(-c2cnc3cccnc3n2)cc1`, in that order: above 200 µM and 174 µM. Turning to `COC(=O)/C(=N\N)C(C(=O)C(=O)Nc1nc(=S)[nH][nH]1)c1nc2ccc([N+](=O)[O-])cc2[nH]c1=O` (configuration not stated), the EC50 was above 75.9 µM and the IC50 is above 75.9 µM. Consider `Cc1ccc(C)c(N2C(=O)C(=O)C(c3nc4ccccc4o3)/C(=N\NC(=O)c3ccccc3O)C2=O)c1` (configuration not stated), for which the outcome was inactive. For the compound `Cn1c2ccccc2n2c3ccccc3c(=S)c(C#N)c12`, the EC50 is above 100 µM and the IC50 was above 100 µM. For the compound `S=c1[nH]c2ccc(Br)cc2c(=S)n1-c1ccccc1`, the EC50 is above 195 µM and the IC50 came out at 56.2 µM.

With `Cc1ccc(NC2=N/C(=C/c3ccccc3)C(Cl)=N2)cc1`, the EC50 was above 100 µM and the IC50 is above 100 µM.

As for `c1ccc(-c2cc(N3CCOCC3)c3ccccc3n2)cc1`, the result was inactive. For `CC(c1ccccc1)[P+](c1ccccc1)(c1ccccc1)c1ccccc1` (configuration not stated), the EC50 was above 200 µM and the IC50 worked out at 1.32 µM. On to `Nc1cc(N)c(N)cc1N`, for which the EC50 was above 200 µM and the IC50 is 38 µM.

In the case of `O=C1C=C2C=CC3CC2(O1)C1CCCCN31` (configuration not stated), the EC50 is above 1150 µM; the IC50 is 8.91 µM and 5.37 µM. Take `N#C/C(c1nc2ccccc2[nH]1)=c1\s/c(=C/c2ccc(Cl)cc2)c(=O)n1-c1ccccc1`: the EC50 was above 200 µM and the IC50 is 107 µM. For the compound `O=C(Nc1ccc(Cl)cc1Cl)c1cc2nc3ccccc3c(=O)n2c2ccccc12`, the EC50 is above 100 µM and the IC50 was above 100 µM.

Take `C=C1CC[C@@](C)(c2ccc(CO)cc2)C1C` (some centres not stated): the outcome was inactive. For `COc1ccc2nc3ccccc3c(NCCN(C)CCCl)c2c1`, the EC50 was above 20 µM and the IC50 worked out at 1.32 µM.

On to `C[Si](C)(C)O[C@@H]1CCCC1NCC#N` (some centres not stated), for which the result was inactive.

Turning to `O=c1oc2ccc(Br)cc2cc1-n1nnc2cc([N+](=O)[O-])ccc21`, the EC50 is above 17.4 µM and the IC50 was above 17.4 µM.

`CCN(CC)CC(=O)Nc1cccc(Cl)c1`: the EC50 was above 200 µM and the IC50 is above 200 µM. On to `OCC1C(CO)C2CC1C1N=NN(c3ccccc3)C21` (configuration not stated), for which the EC50 is above 324 µM and the IC50 is above 324 µM. Take `CC(C)=CCC/C(C)=C/Cc1cc(O)c(Br)cc1O`: the EC50 was above 145 µM and the IC50 amounted to 24 µM. Take `CC1(c2ccccc2)OC(=O)c2c1ccc1ccccc21` (configuration not stated): the result was inactive. Consider `O=C(Nc1cccc2c1C(=O)c1c(NC(=O)c3ccccc3)ccc(Nc3cccc4c3C(=O)c3ccccc3C4=O)c1C2=O)c1ccccc1`, for which the EC50 is above 200 µM and the IC50 turned out to be 120 µM. With `O=C(Nc1c(Cl)cc([N+](=O)[O-])cc1Cl)/C(=N\Nc1cccc(Cl)c1)c1c(O)c2ccccc2oc1=O`, the EC50 was above 24.5 µM and the IC50 was above 24.5 µM. Turning to `C[N+](C)(C)c1ccc(/C=C2\C=Cc3ccccc32)cc1`, the outcome was inactive.

In the case of `COC(=O)CSc1[nH]c2nc(C)nc(Nc3ccccc3)c2c1C#N`, the EC50 is above 200 µM and the IC50 was above 200 µM. On to `CCOC(=O)/C=C(\N=P(c1ccccc1)(c1ccccc1)c1ccccc1)C(F)(F)C(F)(F)C(F)(F)C(F)(F)C(F)(F)F`, for which the EC50 was above 200 µM and the IC50 is above 200 µM. As to `OC1c2ccccc2C(O)c2c1ccc1c2CN(Cc2ccccc2)CC1` (configuration not stated), the EC50 was above 72.4 µM and the IC50 amounted to 12.6 µM. In the case of `COc1ccc2cc1Oc1ccc(cc1)CC1c3cc(c(OC)cc3CCN1C)Oc1c(OC)c(OC)c(OC)c3c1[C@H](C2)N(C)CC3` (some centres not stated), the outcome was inactive. Take `CC(=O)OCC12CCC(C)=CC1OC1C(O)C(OC(C)=O)C2(C)C12CO2` (configuration not stated): the EC50 was above 3.39 µM and the IC50 turned out to be 0.00331 µM. Consider `CCCCCCCCCCCCCCCCCCOC(COP(=O)(O)OCC1OC(n2cc(C)c(=O)[nH]c2=O)CC1N=[N+]=[N-])COP(=O)(O)OC1CC(n2cc(C)c(=O)[nH]c2=O)OC1CO` (configuration not stated), for which the EC50 was 0.17 µM and the IC50 was determined as 30.9 µM.

For `COc1cc2c(c(OC)c1OC)-c1ccc(OC)c(=O)cc1C(NC(=O)CCCCCNc1ccc(N=[N+]=[N-])cc1[N+](=O)[O-])CC2` (configuration not stated), the EC50 is above 200 µM and the IC50 worked out at 0.0631 µM.

With `CO/N=C(/C(=O)Nc1c[n+](CC(=O)[O-])cs1)c1csc(N)n1`, the EC50 is above 145 µM and the IC50 was above 145 µM. Regarding `COc1ccc(C2c3ccccc3C3(O)CC2CC(=O)O3)cc1` (configuration not stated), the EC50 was above 200 µM and the IC50 was above 100 µM. As to `C=C(Br)CNCC(=C)Br`, the EC50 was above 200 µM and the IC50 is 129 µM. On to `O=C(CCC(=O)Nc1ccc(Cl)c(Cl)c1)Cc1nc2ccccc2o1`, for which the EC50 is above 182 µM and the IC50 is above 182 µM. Regarding `CC(C)c1cccc(C(C)C)c1NC1=CC(=O)C(=O)c2ccccc21`, the EC50 is above 30.2 µM and the IC50 is above 30.2 µM. On to `CN(CCN(C)C(=O)CCn1cc(F)c(=O)[nH]c1=O)C(=O)CCn1cc(F)c(=O)[nH]c1=O`, for which the EC50 was above 57.5 µM and the IC50 is above 57.5 µM. For the compound `Cc1cn2cc(-c3cccs3)nc2s1`, the EC50 was above 200 µM and the IC50 came out at 87.1 µM. For `COc1ccc(-c2c(-c3ccccc3)c(C)nc3nc(SC)nc(SC)c23)cc1OC`, the EC50 was above 200 µM and the IC50 is 11.5 µM. With `CC/C(Cl)=N\OC(=O)Nc1ccc(OC)c(C)c1`, the EC50 was above 20 µM and the IC50 was found to be 15.8 µM.

As for `Cc1ccc(Cc2c(=O)[nH]nc3ccccc23)cc1`, the EC50 is above 39.8 µM and the IC50 is above 39.8 µM. In the case of `COCCN1C(=O)C2c3[nH]c4ccccc4c3C3CCC(C(C)(C)C)CC3C2C1=O` (configuration not stated), the EC50 was above 200 µM and the IC50 came out at 39.8 µM.

In the case of `O=[N+]([O-])c1ccc2cnn(CCO)c2c1`, the EC50 is above 200 µM and the IC50 was above 200 µM. In the case of `COc1ccc(NC(=S)Nc2cc(C)cc(C)n2)cc1`, the EC50 was above 200 µM and the IC50 is above 200 µM. Consider `Cc1cc(Cl)ccc1NC(=O)/C(CC(=O)CC(c1ccccc1)c1c(O)c2ccccc2oc1=O)=N\O` (configuration not stated), for which the EC50 is above 132 µM and the IC50 is 95.5 µM. With `COC(=O)C1(C)CCCC2(C)C1CCC1(O)C(O)C(C(C)C)=CCC21` (configuration not stated), the EC50 was above 200 µM and the IC50 turned out to be 56.2 µM. In the same order, the values of `CCN1c2ccccc2NC(=S)c2c1n[nH]c2-c1ccccc1` are above 200 µM and 53.7 µM. As for `O=c1oc2cc(O)ccc2c(O)c1C(c1ccc(C(c2c(O)c3ccc(O)cc3oc2=O)c2c(O)c3ccc(O)cc3oc2=O)cc1)c1c(O)c2ccc(O)cc2oc1=O`, the EC50 is above 200 µM and the IC50 was determined as 91.2 µM. In the case of `CCOC(=O)C(C)Sc1nnc(COc2ccc(Cl)cc2)n1-c1ccccc1` (configuration not stated), the EC50 was above 100 µM and the IC50 stood at 47.9 µM.
